# Test results: patent US9505742B2, “3,4-dihydro-2H-isoquinoline-1-one and 2,3-dihydro-isoindol-1-one compounds” (Hoffmann-La Roche Inc., priority 2013, dated 2016)
# Legend:
# human CYP11B2 = molecular target: T1, human CYP11B2 (Homo sapiens, UniProt P19099); experiment: G-402 cellular enzyme assay, human CYP11B2 (aldosterone release, HTRF); format: cell-based; settings: G-402 cells expressing human CYP11B2; 1 μM Deoxycorticosterone
# T1 construct: The expression plasmids contains the ORF for either human/cyno CYP11B1 or CYP11B2; expressed in transfected cells
# T1 sequence (P19099 25-503): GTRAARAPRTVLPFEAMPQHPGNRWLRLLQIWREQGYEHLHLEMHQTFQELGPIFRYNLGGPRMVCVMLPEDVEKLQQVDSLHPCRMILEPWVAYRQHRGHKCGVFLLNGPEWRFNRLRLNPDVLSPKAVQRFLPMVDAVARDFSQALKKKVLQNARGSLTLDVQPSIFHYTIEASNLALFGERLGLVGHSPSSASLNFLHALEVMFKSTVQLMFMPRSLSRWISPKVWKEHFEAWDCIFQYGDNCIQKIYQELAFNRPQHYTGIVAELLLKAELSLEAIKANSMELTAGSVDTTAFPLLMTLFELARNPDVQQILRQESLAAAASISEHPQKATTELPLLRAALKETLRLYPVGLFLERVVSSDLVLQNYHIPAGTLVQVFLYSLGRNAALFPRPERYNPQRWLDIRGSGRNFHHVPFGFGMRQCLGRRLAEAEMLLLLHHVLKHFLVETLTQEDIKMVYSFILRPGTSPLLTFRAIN
# Description: (§1) Herein we identified the use of the G-402 cell line as a host cell to ectopically express (transiently or stably) enzymes of the CYP11 family. Specifically we developed stable G-402 cells expressing ectopically human CYP11B1, human CYP11B2, human CYP11A1, cynmolgus CYP11B1 or cynomolgus CYP11B2 enzyme activity. Importantly the identified cell line G-402 expresses co-factors (adrenodoxin and adrenodoxin reductase) important for the activity of the CYP11 family and no relevant enzyme activity of the CYP11 family (in comparison to H295R cells) was detected in these cells. Therefore the G-402 cell line is uniquely suited as a host cell for the ectopic expression of enzymes from the CYP11 family. G-402 cells can be obtained from ATCC (CRL-1440) and were originally derived from a renal leiomyoblastoma.
# (§2) The expression plasmids contains the ORF for either human/cyno CYP11B1 or CYP11B2 under the control of a suitable promoter (CMV-promoter) and a suitable resistance marker (neomycin). Using standard techniques the expression plasmid is transfected into G-402 cells and these cells are then selected for expressing the given resistance markers. Individual cell-clones are then selected and assessed for displaying the desired enzymatic activity using 11-Deoxycorticosterone (Cyp11B2) or 11-Deoxycortisol (Cyp11B) as a substrate.
# (§3) G-402 cells expressing CYP11 constructs were established as described above and maintained in McCoy's 5a Medium Modified, ATCC Catalog No. 30-2007 containing 10% FCS and 400 μg/ml G418 (Geneticin) at 37° C. under an atmosphere of 5% CO2/95% air. Cellular enzyme assays were performed in DMEM/F12 medium containing 2.5% charcoal treated FCS and appropriate concentration of substrate (0.3-10 uM 11-Deoxycorticosterone, 11-Deoxycortisol or Corticosterone). For assaying enzymatic activity, cells were plated onto 96 well plates and incubated for 16 h. An aliquot of the supernatant is then transferred and analyzed for the concentration of the expected product (Aldosterone for CYP11B2; Cortisol for CYP11B1). The concentrations of these steroids can be determined using HTRF assays from CisBio analyzing either Aldosterone or Cortisol.
# (§4) Inhibition of the release of produced steroids can be used as a measure of the respective enzyme inhibition by test compounds added during the cellular enzyme assay. The dose dependent inhibition of enzymatic activity by a compound is calculated by means of plotting added inhibitor concentrations (x-axes) vs. measured steroid/product level (y-axes). The inhibition is then calculated by fitting the following 4-parameter sigmoidal function (Morgan-Mercer-Flodin (MMF) model) to the raw data points using the least squares method:
# (§5) [formula] wherein, A is the maximum y value, B is the EC50 factor determined using XLFit, C is the minimum y value and D is the slope value.
# (§6) EC50 values for compounds claimed herein were tested with the G402-based assay system described. Cyp11B2 enzyme activity was tested in presence of 1 μM Deoxycorticosterone and variable amounts of inhibitors; Cyp11B1 enzyme activity was tested in presence of 1 μM Deoxycortisol and variable amounts of inhibitors.
# human CYP11B1 = molecular target: T2, human CYP11B1 (Homo sapiens, UniProt P15538); experiment: G-402 cellular enzyme assay, human CYP11B1 (cortisol release, HTRF); format: cell-based; settings: G-402 cells expressing human CYP11B1; 1 μM Deoxycortisol
# T2 construct: The expression plasmids contains the ORF for either human/cyno CYP11B1 or CYP11B2; expressed in transfected cells
# T2 sequence (P15538 25-503): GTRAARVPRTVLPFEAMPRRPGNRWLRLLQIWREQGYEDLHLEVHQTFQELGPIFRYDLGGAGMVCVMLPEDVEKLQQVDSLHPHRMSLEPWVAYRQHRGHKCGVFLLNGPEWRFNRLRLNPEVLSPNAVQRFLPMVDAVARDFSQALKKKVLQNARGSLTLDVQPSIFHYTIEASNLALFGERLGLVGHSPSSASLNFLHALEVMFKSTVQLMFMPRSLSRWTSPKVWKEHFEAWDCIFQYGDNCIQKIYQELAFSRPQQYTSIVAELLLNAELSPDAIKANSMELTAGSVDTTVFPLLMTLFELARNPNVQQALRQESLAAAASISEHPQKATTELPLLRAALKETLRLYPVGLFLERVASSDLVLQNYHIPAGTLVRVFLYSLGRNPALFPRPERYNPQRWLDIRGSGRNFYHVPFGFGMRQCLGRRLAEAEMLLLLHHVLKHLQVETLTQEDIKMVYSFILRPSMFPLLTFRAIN
# Description: as §1, §2, §3, §4, §5, §6
SMILES,EC50 (human CYP11B2),EC50 (human CYP11B1)
"CC(C)S(=O)(=O)N1CCC(c2cncc(N3C(=O)c4ccc(Cl)cc4C3(C)C)c2)C1 (single isomer, unassigned; (-)) [Example 11, (−)-5-chloro-3,3-dimethyl-2-[5-[(3S or 3R)-1-propan-2-ylsulfonylpyrrolidin-3-yl]pyridin-3-yl]isoindol-1-one]",7 nM,601 nM
"CCS(=O)(=O)N1CCC(F)(c2cncc(N3C(=O)c4ccc(Cl)cc4C3(C)C)c2)CC1 [Example 30, 5-Chloro-2-[5-(1-ethylsulfonyl-4-fluoropiperidin-4-yl)pyridin-3-yl]-3,3-dimethylisoindol-1-one]",1 nM,153 nM
"CC(C)S(=O)(=O)N1CCC(c2cncc(N3C(=O)c4ccc(Cl)cc4C3(C)C)c2)C1 (single isomer, unassigned; (+)) [Example 10, (+)-5-chloro-3,3-dimethyl-2-[5-[(3R or 3S)-1-propan-2-ylsulfonylpyrrolidin-3-yl]pyridin-3-yl]isoindol-1-one]",2 nM,93 nM
"CC(C)S(=O)(=O)N1CCC(F)(c2cncc(N3C(=O)c4ccc(Cl)cc4C3(C)C)c2)CC1 [Example 31, 5-Chloro-2-[5-(4-fluoro-1-propan-2-ylsulfonylpiperidin-4-yl)pyridin-3-yl]-3,3-dimethylisoindol-1-one]",1.5 nM,772 nM
"COc1ccc2c(n1)C(C)(C)N(c1cncc(C3(F)CCN(C(=O)c4cnn(C)c4)CC3)c1)C2=O [Example 41, 6-[5-[4-Fluoro-1-(1-methylpyrazole-4-carbonyl)-4-piperidyl]-3-pyridyl]-2-methoxy-7,7-dimethyl-pyrrolo[3,4-b]pyridin-5-one]",35 nM,986 nM
"Cc1ccncc1C(=O)N1CCC(c2cncc(N3C(=O)c4ccc(Cl)cc4C3(C)C)c2)CC1 [Example 18, 5-Chloro-3,3-dimethyl-2-[5-[1-(4-methylpyridine-3-carbonyl)piperidin-4-yl]pyridin-3-yl]isoindol-1-one]",16 nM,219 nM
"CC1(C)c2cc(Cl)ccc2C(=O)N1c1cncc(C2CCN(C(=O)c3ncccc3Cl)CC2)c1 [Example 20, 5-Chloro-2-[5-[1-(3-chloropyridine-2-carbonyl)piperidin-4-yl]pyridin-3-yl]-3,3-dimethylisoindol-1-one]",8 nM,488 nM
"CC1(C)c2cc(Cl)ccc2C(=O)N1c1cncc(C2CCCN(S(C)(=O)=O)C2)c1 (single isomer, unassigned; (+)) [Example 5, (+)-5-chloro-3,3-dimethyl-2-[5-[(3R or 3S)-1-methylsulfonylpiperidin-3-yl]pyridin-3-yl]isoindol-1-one]",5 nM,213 nM
"Cc1ccncc1C(=O)N1CCC(c2cncc(N3C(=O)c4ccc(Cl)cc4[C@H]3C)c2)CC1 (single isomer, unassigned) [Example 28, (+)-(3R or 3S)-5-chloro-3-methyl-2-[5-[1-(4-methylpyridine-3-carbonyl)piperidin-4-yl]pyridin-3-yl]-3H-isoindol-1-one]",4 nM,167 nM
"CCCS(=O)(=O)N1CCC(F)(c2cncc(N3C(=O)c4ccc(OC)nc4C3(C)C)c2)CC1 [Example 43, 6-[5-(4-Fluoro-1-propylsulfonyl-4-piperidyl)-3-pyridyl]-2-methoxy-7,7-dimethyl-pyrrolo[3,4-b]pyridin-5-one]",21 nM,1900 nM
"CCS(=O)(=O)N1CCC(c2cncc(N3C(=O)c4ccc(Cl)cc4C3(C)C)c2)C1 (stereo not shown) [Example 7, 5-Chloro-2-[5-(1-ethylsulfonylpyrrolidin-3-yl)pyridin-3-yl]-3,3-dimethylisoindol-1-one]",2 nM,149 nM
"CCCS(=O)(=O)N1CCC(c2cncc(N3C(=O)c4ccc(Cl)cc4C3(C)C)c2)CC1 [Example 15, 5-Chloro-3,3-dimethyl-2-[5-(1-propylsulfonylpiperidin-4-yl)pyridin-3-yl]isoindol-1-one]",1 nM,239 nM

# Continued, values first:
EC50 (human CYP11B2),EC50 (human CYP11B1),SMILES
21 nM,1340 nM,"CC1(C)c2cc(Cl)ccc2C(=O)N1c1cncc(C2CCN(C(=O)c3ccncc3Cl)CC2)c1 [Example 19, 5-Chloro-2-[5-[1-(3-chloropyridine-4-carbonyl)piperidin-4-yl]pyridin-3-yl]-3,3-dimethylisoindol-1-one]"
25 nM,1050 nM,"CCS(=O)(=O)N1CCC(c2cncc(N3Cc4cc(Cl)ccc4C3=O)c2)CC1 [Example 21, 5-Chloro-2-[5-(1-ethylsulfonylpiperidin-4-yl)pyridin-3-yl]-3H-isoindol-1-one]"
4 nM,1190 nM,"CC(C)S(=O)(=O)N1CCC(c2cncc(N3C(=O)c4ccc(Cl)cc4C3(C)C)c2)CC1 [Example 16, 5-Chloro-3,3-dimethyl-2-[5-(1-propan-2-ylsulfonylpiperidin-4-yl)pyridin-3-yl]isoindol-1-one]"
4 nM,8 nM,"COc1ccc2c(n1)C(C)(C)N(c1cncc(C3(F)CCN(C(=O)c4nccn4C)CC3)c1)C2=O [Example 44, 6-[5-[4-Fluoro-1-(1-methylimidazole-2-carbonyl)-4-piperidyl]-3-pyridyl]-2-methoxy-7,7-dimethyl-pyrrolo[3,4-b]pyridin-5-one]"
2 nM,433 nM,"CCS(=O)(=O)N1CCC(c2cncc(N3C(=O)c4ccc(Cl)cc4[C@H]3C)c2)CC1 (single isomer, unassigned) [Example 24, (+)-(3R or 3S)-5-chloro-2-[5-(1-ethylsulfonylpiperidin-4-yl)pyridin-3-yl]-3-methyl-3H-isoindol-1-one]"
148 nM,4550 nM,"CC(=O)N1CC(c2cncc(N3C(=O)c4ccc(Cl)cc4C3(C)C)c2)C1 [Example 33, 2-[5-(1-Acetylazetidin-3-yl)pyridin-3-yl]-5-chloro-3,3-dimethylisoindol-1-one]"
14 nM,800 nM,"CCCS(=O)(=O)N1CCC(c2cncc(N3C(=O)c4ccc(Cl)cc4C3(C)C)c2)C1 (single isomer, unassigned; (-)) [Example 9, (−)-5-chloro-3,3-dimethyl-2-[5-[(3S or 3R)-1-propylsulfonylpyrrolidin-3-yl]pyridin-3-yl]isoindol-1-one]"
1 nM,523 nM,"CC(C)S(=O)(=O)N1CCC(c2cncc(N3C(=O)c4ccc(Cl)cc4[C@@H]3C)c2)CC1 (single isomer, unassigned) [Example 27, (−)-(3S or 3R)-5-chloro-3-methyl-2-[5-(1-propan-2-ylsulfonylpiperidin-4-yl)pyridin-3-yl]-3H-isoindol-1-one]"
